A word on the pIC50: it is the negative decadic logarithm of the IC50, by convention in mol/L. Low values mean a high IC50, high ones a low IC50.

The values that follow come from ChEMBL document CHEMBL4316584, “All that glitters is not gold: Panning cytotoxic natural products and derivatives with a fused tricyclic backbone by the estimation of their leadlikeness for cancer treatment” (Eur J Med Chem, 2019).

Structures are written as SMILES. pIC50: −log10 of the molar value.

The test system of this test is HeLa. Nature of the test: Cytotoxicity against human HeLa cells after 48 hrs by MTT assay. Format: functional, cell-based. For orientation: Tetrazolium assays rely on reduction of a dye to a coloured formazan, in cell work by metabolically active cells.

`COc1cc2oc3cc(O)c(OC)c(CC=C(C)C)c3c(=O)c2c(O)c1CC=C(C)C` gave a pIC50 of 4.89.

As for `Nc1ccc(C(=O)/C=C/c2cc3c([nH]c4ccccc43)c(-c3ccc(F)cc3)n2)cc1`, the pIC50 is 4.73.

`COc1cc(-c2nc(/C=C/C(=O)c3ccc(N)cc3)cc3c2[nH]c2ccccc23)ccc1F` gave a negative-log IC50 (pIC50) of 4.82.

In the case of `COc1cc(-c2nc(/C=C/C(=O)c3ccc(F)cc3)cc3c2[nH]c2ccccc23)cc(OC)c1OC`, the pIC50 is 4.87.

On to `COc1ccc(-c2nc(/C=C/C(=O)c3ccc(N)cc3)cc3c2[nH]c2ccccc23)cc1OC`, for which the pIC50 is 4.87.

Molecule `COc1cc(-c2nc(/C=C/C(=O)c3ccc(O)cc3)cc3c2[nH]c2ccccc23)cc(OC)c1OC` gave a pIC50 of 4.90.

Take `NCCCCNCCNCc1c2ccccc2c(CNCCNCCCCN)c2ccccc12`: the pIC50 is 4.70. Compared with the last molecule, the pIC50 is 0.20 log units lower.

Take `COc1cc(-c2nc(C3CC(c4cccs4)=NN3C(C)=O)cc3c2[nH]c2ccccc23)cc(OC)c1OC` (centres undefined): the pIC50 is 5.35.

For the molecule `CC(=O)N1N=C(c2cccs2)CC1c1cc2c([nH]c3ccccc32)c(-c2ccc(F)c(F)c2)n1` (centres undefined), the pIC50 is 5.06.

Regarding `COc1cc(NC(=O)[C@H](Cc2ccccc2)NC(=S)NC(=O)[C@]2(C)CCC[C@]3(C)c4ccc(C(C)C)cc4CC[C@@H]23)cc(OC)c1OC`, the pIC50 is 4.76.

In turn, `COc1c(O)cc2oc3cc(O)c(C/C=C(/C)CO)c(O)c3c(=O)c2c1CCC(C)(O)CCC=C(C)C` (centres undefined) gave a pIC50 of 4.76.

Molecule `O=C(/C=C/c1cc2c([nH]c3ccccc32)c(-c2ccc(C(F)(F)F)cc2)n1)c1cccs1` gave a pIC50 of 5.02. This pIC50 lies 0.26 log units higher than the previous one.

`Cc1cc(C)cc(NC(=O)[C@H](Cc2ccccc2)NC(=S)NC(=O)[C@]2(C)CCC[C@]3(C)c4ccc(C(C)C)cc4CC[C@@H]23)c1`: the pIC50 was 4.80.

In turn, `COc1cc(-c2nc(Cn3cc(CN4C(=O)c5ccc(C)cc5C4=O)nn3)cc3c2[nH]c2ccccc23)cc(OC)c1OC` gave a pIC50 of 4.81.

Take `CC(=O)N1N=C(c2cccs2)CC1c1cc2c([nH]c3ccccc32)c(-c2ccc(C(F)(F)F)cc2)n1` (centres undefined): the pIC50 was 4.72.

As to `CCOc1ccc(/C=C2\CCc3c([nH]c4ccc(C)cc34)C2=O)cc1OCC`, the negative-log IC50 (pIC50) was 6.10.

For `CC(=O)N1N=C(c2ccco2)CC1c1cc2c([nH]c3ccccc32)c(-c2ccc(F)c(F)c2)n1` (centres undefined), the pIC50 is 5.47.

In turn, `CCOc1ccc(/C=C2\CCc3c([nH]c4c(C)cccc34)C2=O)cc1OCC` gave a pIC50 of 5.82.

`CC(=O)N1N=C(c2ccc[nH]2)CC1c1cc2c([nH]c3ccccc32)c(-c2ccc(C(F)(F)F)cc2)n1` (centres undefined): the pIC50 was 5.20. This pIC50 lies 0.62 log units lower than the previous one.

Turning to `CCOc1ccc(/C=C2\CCc3c([nH]c4ccc(Cl)cc34)C2=O)cc1OCC`, the pIC50 is 5.56.

`CC(C)c1ccc2c(c1)CC[C@H]1[C@](C)(C(=O)NC(=S)N[C@@H](Cc3ccccc3)C(=O)Nc3ccc(Br)cc3)CCC[C@]21C`: the pIC50 is 4.81. Compared with the last molecule, the pIC50 is 0.75 log units lower.

For `CC(C)c1ccc2c(c1)CC[C@H]1[C@](C)(C(=O)NC(=S)N[C@@H](Cc3ccccc3)C(=O)Nc3ccccc3Br)CCC[C@]21C`, the pIC50 is 4.90.

In the case of `CC(C)c1ccc2c(c1)CC[C@H]1[C@](C)(C(=O)NC(=S)N[C@@H](Cc3ccccc3)C(=O)Nc3cccc4ccccc34)CCC[C@]21C`, the pIC50 was 4.89.

The molecule `COc1cc(-c2nc(/C=C/C(=O)c3cccs3)cc3c2[nH]c2ccccc23)cc(OC)c1OC` had a pIC50 of 5.16.

In turn, `COc1c(O)cc2oc3cc(O)c(C/C=C(/C)CO)c(O)c3c(=O)c2c1C/C=C(\C)CCCC(C)(C)O` showed a pIC50 of 4.78.

Molecule `O=C(/C=C/c1cc2c([nH]c3ccccc32)c(-c2ccc(C(F)(F)F)cc2)n1)c1ccc[nH]1` gave a pIC50 of 5.14. Compared with the last molecule, the pIC50 is 0.36 log units higher.

For `CC(C)c1ccc2c(c1)CC[C@H]1[C@](C)(C(=O)NC(=S)N[C@@H](Cc3ccccc3)C(=O)Nc3ccccn3)CCC[C@]21C`, the pIC50 is 5.18.

With `C=CCc1cc2oc3cc(OC)cc(O)c3c(=O)c2c(OC)c1O`, the pIC50 is 4.73. This pIC50 is 0.45 log units lower than that of the molecule before.

In turn, `CC(C)c1ccc2c(c1)CC[C@H]1[C@](C)(C(=O)NC(=S)N[C@@H](Cc3ccccc3)C(=O)Nc3ccccc3F)CCC[C@]21C` had a pIC50 of 4.73.
